In ChEMBL document CHEMBL1201862, “PubChem BioAssay data set” (2004):
Calls of active or inactive are those of the source.

Assays:
[1] = molecular target: Cyclin-dependent kinase 5/CDK5 activator 1 (Homo sapiens, UniProt Q00535); assay: CDK5/p35 kinase inhibitors, dose response, biochemical, cherry-picked samples, set 2 (AID 504545)
[2] = Counterscreen for IDE inhibitors: Luminescence-based cell-based high throughput dose response assay to identify compounds that are cytotoxic to HEK cells. [Related pubchem assays: 434962 (Primary screen (IDE inhibitors in singlicate)), 449730 (Counterscreen (Cytotoxicity in triplicate)), 435028 (Confirmation (IDE inhibitors in triplicate)) …; format: functional; settings: HEK293
[3] = molecular target: DNA dC->dU-editing enzyme APOBEC-3A (Homo sapiens, UniProt P31941); assay: Dose Response confirmation of small molecule APOBEC3A DNA Deaminase Inhibitors via a fluorescence-based single-stranded DNA deaminase assay. [Related pubchem assays (depositor defined):AID493011, AID493024]; format: functional
Chain of DNA dC->dU-editing enzyme APOBEC-3A (P31941 whole entry): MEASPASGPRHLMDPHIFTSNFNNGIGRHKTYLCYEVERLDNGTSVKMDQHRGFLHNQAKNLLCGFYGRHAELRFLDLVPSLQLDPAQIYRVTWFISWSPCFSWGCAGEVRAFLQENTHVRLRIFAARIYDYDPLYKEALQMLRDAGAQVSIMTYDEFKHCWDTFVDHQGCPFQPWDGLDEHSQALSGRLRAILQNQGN

[4] = molecular target: DNA dC->dU-editing enzyme APOBEC-3G (Homo sapiens, UniProt Q9HC16); format: functional;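 also: Dose-response counterscreen measuring inhibition of APOBEC3G DNA deaminase activity, run while confirming APOBEC3A inhibitors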
[5] = molecular target: T1, Insulin-degrading enzyme (Homo sapiens, UniProt P14735); assay: Dose Response: Fluorescence polarization-based cell-based high throughput dose response assay for inhibitors of insulin-degrading enzyme (IDE). [Related pubchem assays: 434962 (Primary screen (IDE inhibitors in singlicate)), 449730 (Counterscreen (Cytotoxicity in triplicate)), 435028 (Confirmation (IDE inhibitors in triplicate)), 434984 (Summary …; format: functional
T1 sequence (P14735 whole entry): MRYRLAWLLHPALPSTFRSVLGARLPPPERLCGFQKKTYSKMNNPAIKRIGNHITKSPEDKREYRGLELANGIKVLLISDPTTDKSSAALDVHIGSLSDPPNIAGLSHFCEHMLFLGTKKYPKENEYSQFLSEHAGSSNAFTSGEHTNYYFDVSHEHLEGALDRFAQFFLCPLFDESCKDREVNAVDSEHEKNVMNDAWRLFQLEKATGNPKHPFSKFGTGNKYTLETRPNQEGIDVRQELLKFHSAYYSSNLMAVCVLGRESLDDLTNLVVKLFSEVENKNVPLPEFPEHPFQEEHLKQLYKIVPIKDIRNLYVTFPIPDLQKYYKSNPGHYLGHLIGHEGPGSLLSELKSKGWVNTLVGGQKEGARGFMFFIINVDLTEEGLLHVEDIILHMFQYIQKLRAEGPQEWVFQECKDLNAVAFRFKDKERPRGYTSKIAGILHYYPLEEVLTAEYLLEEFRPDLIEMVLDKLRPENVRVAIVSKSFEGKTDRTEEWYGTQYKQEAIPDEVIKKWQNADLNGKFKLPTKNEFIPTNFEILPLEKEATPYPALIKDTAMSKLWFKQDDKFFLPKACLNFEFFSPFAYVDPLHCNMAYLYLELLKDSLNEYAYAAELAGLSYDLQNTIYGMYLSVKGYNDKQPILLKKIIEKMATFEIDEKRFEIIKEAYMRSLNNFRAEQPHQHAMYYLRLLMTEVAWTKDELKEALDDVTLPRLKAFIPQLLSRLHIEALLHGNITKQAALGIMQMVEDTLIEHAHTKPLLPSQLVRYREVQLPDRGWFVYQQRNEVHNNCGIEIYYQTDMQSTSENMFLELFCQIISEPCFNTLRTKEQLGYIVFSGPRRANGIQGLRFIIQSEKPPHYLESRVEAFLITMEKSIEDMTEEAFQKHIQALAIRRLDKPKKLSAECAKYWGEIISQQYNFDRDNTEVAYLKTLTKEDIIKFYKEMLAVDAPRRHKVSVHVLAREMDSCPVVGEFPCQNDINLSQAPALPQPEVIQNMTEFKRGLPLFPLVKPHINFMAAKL

[6] = molecular target: NACHT, LRR and PYD domains-containing protein 3 (Homo sapiens, UniProt Q96P20); assay: NALP3 inhibitors in yeast, dose response, luminescent (AID 488799); format: functional
Chain of NACHT, LRR and PYD domains-containing protein 3 (Q96P20 whole entry, the tested form may be a part): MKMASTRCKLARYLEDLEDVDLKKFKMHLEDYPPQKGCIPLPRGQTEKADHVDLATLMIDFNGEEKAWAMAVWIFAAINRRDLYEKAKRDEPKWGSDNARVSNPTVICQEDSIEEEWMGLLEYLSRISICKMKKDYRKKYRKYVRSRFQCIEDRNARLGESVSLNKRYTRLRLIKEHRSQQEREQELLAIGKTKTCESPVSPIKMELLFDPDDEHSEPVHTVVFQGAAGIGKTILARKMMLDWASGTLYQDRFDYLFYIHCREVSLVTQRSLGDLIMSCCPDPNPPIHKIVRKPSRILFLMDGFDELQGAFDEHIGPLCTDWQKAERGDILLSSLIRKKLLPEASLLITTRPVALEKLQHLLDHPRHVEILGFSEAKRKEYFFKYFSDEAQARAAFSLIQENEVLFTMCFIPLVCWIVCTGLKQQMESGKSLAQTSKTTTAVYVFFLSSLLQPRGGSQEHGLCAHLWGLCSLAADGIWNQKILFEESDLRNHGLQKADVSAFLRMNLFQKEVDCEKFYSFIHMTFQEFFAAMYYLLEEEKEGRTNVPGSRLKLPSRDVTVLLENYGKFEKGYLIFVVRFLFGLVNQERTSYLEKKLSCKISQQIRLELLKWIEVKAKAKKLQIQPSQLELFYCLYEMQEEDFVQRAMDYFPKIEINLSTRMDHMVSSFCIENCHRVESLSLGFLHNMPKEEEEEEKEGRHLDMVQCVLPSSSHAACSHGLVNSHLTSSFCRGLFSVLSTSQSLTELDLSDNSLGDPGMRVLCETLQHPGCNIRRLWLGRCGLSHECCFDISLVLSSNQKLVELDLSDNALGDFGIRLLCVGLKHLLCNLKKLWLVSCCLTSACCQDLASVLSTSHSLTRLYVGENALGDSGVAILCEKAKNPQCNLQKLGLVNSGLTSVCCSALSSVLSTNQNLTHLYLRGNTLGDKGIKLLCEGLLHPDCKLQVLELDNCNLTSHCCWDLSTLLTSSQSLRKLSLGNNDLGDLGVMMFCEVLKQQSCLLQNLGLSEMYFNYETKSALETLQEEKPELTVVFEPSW

[7] = molecular target: Ion channel NompC (Danio rerio, UniProt Q7T1G6); assay: Fluorescence counterscreen assay for TRPML3 agonists: dose response cell-based high-throughput screening assay to identify agonists of the transient receptor potential channel N1 (TRPN1). [Related pubchem assays: 1526, 1424, 1448 ]; format: functional
Chain of Ion channel NompC (Q7T1G6 whole entry): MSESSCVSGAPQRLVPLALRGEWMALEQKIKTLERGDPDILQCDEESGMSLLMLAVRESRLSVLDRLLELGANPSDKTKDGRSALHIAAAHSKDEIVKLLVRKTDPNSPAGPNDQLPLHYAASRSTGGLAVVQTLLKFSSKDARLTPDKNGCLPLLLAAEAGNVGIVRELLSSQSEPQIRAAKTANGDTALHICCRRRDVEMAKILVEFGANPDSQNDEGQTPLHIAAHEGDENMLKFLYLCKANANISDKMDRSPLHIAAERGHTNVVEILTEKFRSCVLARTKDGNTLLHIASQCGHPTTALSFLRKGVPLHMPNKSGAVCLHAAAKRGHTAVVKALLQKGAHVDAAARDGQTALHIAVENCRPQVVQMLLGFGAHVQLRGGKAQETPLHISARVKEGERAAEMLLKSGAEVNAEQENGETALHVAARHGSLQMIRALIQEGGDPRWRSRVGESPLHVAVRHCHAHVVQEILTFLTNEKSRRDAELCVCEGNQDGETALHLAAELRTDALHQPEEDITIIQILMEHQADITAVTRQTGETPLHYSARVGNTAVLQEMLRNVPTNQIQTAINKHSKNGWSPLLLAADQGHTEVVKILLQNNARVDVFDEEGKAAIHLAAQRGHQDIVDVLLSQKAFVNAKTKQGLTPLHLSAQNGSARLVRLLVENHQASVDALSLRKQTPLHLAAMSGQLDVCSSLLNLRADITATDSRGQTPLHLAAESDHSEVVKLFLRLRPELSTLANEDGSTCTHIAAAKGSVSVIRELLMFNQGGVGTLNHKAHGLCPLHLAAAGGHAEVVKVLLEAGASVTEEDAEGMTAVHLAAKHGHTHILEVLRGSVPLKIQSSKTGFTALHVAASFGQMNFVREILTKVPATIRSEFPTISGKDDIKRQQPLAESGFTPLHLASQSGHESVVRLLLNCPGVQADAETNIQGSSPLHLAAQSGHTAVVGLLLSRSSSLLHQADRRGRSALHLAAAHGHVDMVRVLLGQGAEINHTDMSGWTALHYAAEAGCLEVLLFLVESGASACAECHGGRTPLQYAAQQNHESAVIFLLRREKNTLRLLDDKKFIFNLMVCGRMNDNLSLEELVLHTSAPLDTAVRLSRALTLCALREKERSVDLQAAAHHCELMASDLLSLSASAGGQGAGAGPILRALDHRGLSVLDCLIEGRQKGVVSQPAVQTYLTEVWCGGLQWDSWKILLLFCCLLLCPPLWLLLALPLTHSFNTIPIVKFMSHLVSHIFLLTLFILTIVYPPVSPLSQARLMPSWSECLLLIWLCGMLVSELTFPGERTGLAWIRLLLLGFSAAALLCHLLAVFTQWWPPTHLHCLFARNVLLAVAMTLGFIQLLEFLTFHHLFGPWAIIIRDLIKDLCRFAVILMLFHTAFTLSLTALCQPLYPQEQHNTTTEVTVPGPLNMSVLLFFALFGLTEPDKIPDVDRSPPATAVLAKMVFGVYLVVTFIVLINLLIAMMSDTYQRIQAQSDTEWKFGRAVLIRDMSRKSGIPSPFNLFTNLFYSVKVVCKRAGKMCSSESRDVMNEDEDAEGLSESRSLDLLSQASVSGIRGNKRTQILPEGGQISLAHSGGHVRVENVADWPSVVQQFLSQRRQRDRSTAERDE

[8] = molecular target: Mucolipin-3 (Homo sapiens, UniProt Q8TDD5); assay: Dose response cell-based high-throughput screening assay for agonists of the transient receptor potential channel ML3 (TRPML3). [Related pubchem assays: 1526, 1424, 1448 ]; format: functional
Chain of Mucolipin-3 (Q8TDD5 whole entry): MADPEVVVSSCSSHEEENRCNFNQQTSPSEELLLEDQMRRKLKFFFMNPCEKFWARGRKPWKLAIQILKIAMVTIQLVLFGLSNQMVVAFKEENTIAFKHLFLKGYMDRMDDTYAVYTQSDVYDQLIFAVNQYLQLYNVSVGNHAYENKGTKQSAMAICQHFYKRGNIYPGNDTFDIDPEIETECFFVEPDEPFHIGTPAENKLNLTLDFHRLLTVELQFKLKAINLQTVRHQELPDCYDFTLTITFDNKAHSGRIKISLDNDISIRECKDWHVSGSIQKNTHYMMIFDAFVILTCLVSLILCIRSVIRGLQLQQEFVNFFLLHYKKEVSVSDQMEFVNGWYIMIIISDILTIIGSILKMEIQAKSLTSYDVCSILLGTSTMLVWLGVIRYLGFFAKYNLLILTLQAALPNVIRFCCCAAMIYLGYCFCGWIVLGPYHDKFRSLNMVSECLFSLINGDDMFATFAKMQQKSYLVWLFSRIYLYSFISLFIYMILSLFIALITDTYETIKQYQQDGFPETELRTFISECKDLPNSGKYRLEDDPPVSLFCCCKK

[9] = molecular target: Metabotropic glutamate receptor 4 (Rattus norvegicus, UniProt P31423); assay: Modulation of the Metabotropic Glutamate Receptor mGluR4: Rat PAM Potency. [Related pubchem assays (depositor defined):AID2437, AID2807]; format: functional
[10] = molecular target: T2, Zinc finger protein mex-5 (Caenorhabditis elegans, UniProt Q9XUB2); assay: MEX-5/TCR-2 RNA interaction inhibitors, dose response, biochemical, C. elegans, fluorescence polarization (AID 1960)
T2 sequence (Q9XUB2 whole entry): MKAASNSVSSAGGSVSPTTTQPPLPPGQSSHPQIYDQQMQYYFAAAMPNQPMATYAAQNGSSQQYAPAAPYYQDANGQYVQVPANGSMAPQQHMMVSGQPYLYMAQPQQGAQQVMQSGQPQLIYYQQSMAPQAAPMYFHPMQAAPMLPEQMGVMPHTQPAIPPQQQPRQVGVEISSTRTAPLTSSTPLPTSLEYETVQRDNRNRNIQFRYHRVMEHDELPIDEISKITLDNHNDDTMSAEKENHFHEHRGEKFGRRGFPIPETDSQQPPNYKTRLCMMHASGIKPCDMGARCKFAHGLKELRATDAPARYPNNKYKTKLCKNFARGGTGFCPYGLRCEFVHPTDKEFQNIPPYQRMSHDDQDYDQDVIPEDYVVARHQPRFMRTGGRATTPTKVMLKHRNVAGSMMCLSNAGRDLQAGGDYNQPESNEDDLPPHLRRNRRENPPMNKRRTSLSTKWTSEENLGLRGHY

[11] = molecular target: Procathepsin L (Homo sapiens, UniProt P07711)
Chain of Procathepsin L (P07711 whole entry, the tested form may be a part): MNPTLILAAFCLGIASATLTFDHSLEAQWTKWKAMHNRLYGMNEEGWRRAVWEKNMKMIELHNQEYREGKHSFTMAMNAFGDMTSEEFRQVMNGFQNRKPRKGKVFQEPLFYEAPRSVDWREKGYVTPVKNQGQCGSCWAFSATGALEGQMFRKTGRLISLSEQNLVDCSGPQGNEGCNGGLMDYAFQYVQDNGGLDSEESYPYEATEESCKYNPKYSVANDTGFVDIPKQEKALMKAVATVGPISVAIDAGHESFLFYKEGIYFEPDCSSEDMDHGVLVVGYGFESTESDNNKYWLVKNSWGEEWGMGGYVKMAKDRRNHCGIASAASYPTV

[12] = molecular target: T3, RNA-binding protein pos-1 (Caenorhabditis elegans, UniProt G5EF15); assay: inhibitors of POS-1/mex-3 RNA binding, dose response, biochemical, fluorescence polarization (AID 1964);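 also: purified POS-1 fused to maltose binding protein made in E. coli; potency of compounds blocking POS-1 binding to fluorescent RNA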
T3 sequence (G5EF15 whole entry): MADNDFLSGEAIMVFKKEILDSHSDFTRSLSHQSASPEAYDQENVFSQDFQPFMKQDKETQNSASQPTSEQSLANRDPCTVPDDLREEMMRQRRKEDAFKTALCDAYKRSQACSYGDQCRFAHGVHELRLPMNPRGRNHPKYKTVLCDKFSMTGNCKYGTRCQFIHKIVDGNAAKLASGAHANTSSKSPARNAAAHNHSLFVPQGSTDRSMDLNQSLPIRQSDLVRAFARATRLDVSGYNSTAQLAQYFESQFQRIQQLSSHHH

[13] = molecular target: Large T antigen (Simian virus 40, UniProt P03070); format: functional, Betapolyomavirus macacae;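 also: Confirmatory-stage PubChem screen for compounds that inhibit SV40 T antigen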
Chain of Large T antigen (P03070 whole entry): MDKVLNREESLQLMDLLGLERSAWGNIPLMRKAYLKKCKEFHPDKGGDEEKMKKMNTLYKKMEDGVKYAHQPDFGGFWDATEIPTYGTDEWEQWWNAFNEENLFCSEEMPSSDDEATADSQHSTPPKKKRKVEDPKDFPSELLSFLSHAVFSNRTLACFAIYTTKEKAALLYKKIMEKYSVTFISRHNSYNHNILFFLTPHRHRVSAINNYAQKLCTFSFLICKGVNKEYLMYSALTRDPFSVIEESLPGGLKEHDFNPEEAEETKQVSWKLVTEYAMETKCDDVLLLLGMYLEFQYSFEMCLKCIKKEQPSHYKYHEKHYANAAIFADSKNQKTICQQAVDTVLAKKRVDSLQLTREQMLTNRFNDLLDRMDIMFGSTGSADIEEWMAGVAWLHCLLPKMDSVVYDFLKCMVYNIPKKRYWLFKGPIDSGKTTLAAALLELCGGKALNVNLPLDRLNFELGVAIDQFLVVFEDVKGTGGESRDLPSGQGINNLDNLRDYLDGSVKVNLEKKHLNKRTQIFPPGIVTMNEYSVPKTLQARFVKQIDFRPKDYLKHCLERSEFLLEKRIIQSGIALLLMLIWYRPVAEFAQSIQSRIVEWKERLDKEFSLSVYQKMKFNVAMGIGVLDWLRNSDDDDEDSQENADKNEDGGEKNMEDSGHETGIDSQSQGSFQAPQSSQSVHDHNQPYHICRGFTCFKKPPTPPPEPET

[14] = molecular target: Aspartyl aminopeptidase (Plasmodium falciparum 3D7, UniProt Q8I2J3)
[15] = molecular target: Cytochrome P450 2D6 (Homo sapiens, UniProt P10635); assay: qHTS Assay for Inhibitors and Substrates of Cytochrome P450 2D6. [Related pubchem assays: 410 ]; format: ADME; settings: read-out: Potency

Chain of Cyclin-dependent kinase 5/CDK5 activator 1 (Q00535 whole entry): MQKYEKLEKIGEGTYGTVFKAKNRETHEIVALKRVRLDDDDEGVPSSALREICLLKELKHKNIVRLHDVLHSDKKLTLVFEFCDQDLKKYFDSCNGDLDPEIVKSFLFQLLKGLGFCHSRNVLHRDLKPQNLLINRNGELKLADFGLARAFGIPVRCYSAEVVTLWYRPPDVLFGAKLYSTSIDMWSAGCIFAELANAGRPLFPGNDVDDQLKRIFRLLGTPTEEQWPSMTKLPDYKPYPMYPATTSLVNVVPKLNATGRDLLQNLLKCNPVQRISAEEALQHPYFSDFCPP
Chain of Cyclin-dependent kinase 5/CDK5 activator 1 (Q15078 whole entry, further chain): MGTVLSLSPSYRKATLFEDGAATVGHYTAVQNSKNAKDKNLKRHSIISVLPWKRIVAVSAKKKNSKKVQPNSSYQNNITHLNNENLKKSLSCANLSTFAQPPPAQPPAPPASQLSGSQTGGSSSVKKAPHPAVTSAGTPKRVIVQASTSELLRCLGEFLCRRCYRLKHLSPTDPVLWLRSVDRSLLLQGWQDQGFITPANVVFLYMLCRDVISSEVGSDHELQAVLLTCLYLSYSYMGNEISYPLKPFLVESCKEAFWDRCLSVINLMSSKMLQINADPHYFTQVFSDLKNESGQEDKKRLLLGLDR

Question: For `Nc1nc(Nc2cccc(Cl)c2)nc(NCCO)c1[N+](=O)[O-]`, which AC50 [1] is on record?
Answer: 8.21 µM (active)

Question: What does the source list for `CCN(CC)C(=O)c1ccc(/C=C/c2c[nH]c3ccccc23)[n+](C)c1`?
Answer: IC50 [2]: > 55.7 µM (not active); IC50 [3]: 1.96 µM (active); IC50 [4]: 2.1 µM (active); IC50 [5]: 16.1 µM (not active)

Question: With `CN(CCOc1ccccc1)c1ccc(S(=O)(=O)N2CCCCC2)cn1` as the compound, how does the IC50 [6] read?
Answer: > 100 µM (inactive)

Question: What about the EC50 [7] of the same compound?
Answer: > 29.9 µM (not active)

Question: What about the EC50 [8] of the same compound?
Answer: 2.58 µM (active)

Question: With `O=C(Nc1ccc(Cl)c(Cl)c1)c1ccccn1` as the compound, how does the EC50 [9] read?
Answer: 1.25 µM (active)

Question: Which EC50 [10] does the source give for `CN1CCc2cccc3c2[C@H]1Cc1ccc(O)c(O)c1-3` [APOMORPHINE] here?
Answer: 3.29 µM (active)

Question: And the IC50 [11]?
Answer: > 59.6 µM (not active)

Question: And the EC50 [12]?
Answer: > 300 µM (inconclusive)

Question: What about the IC50 [13] of the same compound?
Answer: 20.2 µM (active)

Question: What about the IC50 [14] of the same compound?
Answer: 3.67 µM (active)

Question: For `CC(C)=CCc1c(O)cc(O)c2c1O[C@H](c1ccccc1)CC2=O` [GLABRANIN], which AC50 [15] is on record?
Answer: 31.6 µM (inconclusive)
